In PubChem BioAssay AID248 (DTP/NCI, 2004):
“And” between values parts separate entries of the source, which are not always exact repeats. Equal values may be shown once. Inconclusive results and toxic doses are left out. Rule as the data show it: active = T/C of 150% or more; inactive = T/C below 125%.

System: L1210 leukemia ip in BDF1 mice, survival T/C
Test: NCI In Vivo Anticancer Drug Screen. Data for tumor model L1210 Leukemia (intraperitoneal) in B6D2F1 (BDF1) mice
Details: endpoint: mean survival time, higher = longer survival
Summary of the method: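 Survival endpoint. Drug-treated group vs vehicle group, expressed as T divided by C. Tumor passaged by transplantation.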

[1] = dose: 100.0 mg/kg/injection, schedule: Q01DX009 (ip), vehicle: gum acacia
[2] = dose: 200.0 mg/kg/injection, schedule: Q01DX009 (ip), vehicle: gum acacia
[3] = dose: 400.0 mg/kg/injection, schedule: Q01DX009 (ip), vehicle: gum acacia
[4] = dose: 400.0 mg/kg/injection, schedule: Q01DX001 (ip), vehicle: saline
[5] = dose: 100.0 mg/kg/injection, schedule: Q01DX009 (ip), vehicle: Klucel (hydroxypropylcellulose) (HPC)
[6] = dose: 100.0 mg/kg/injection, schedule: Q01DX001 (ip), vehicle: saline
[7] = dose: 200.0 mg/kg/injection, schedule: Q01DX001 (ip), vehicle: saline
[8] = dose: 100.0 mg/kg/injection, schedule: Q01DX009 (ip), vehicle: saline
[9] = dose: 200.0 mg/kg/injection, schedule: Q01DX009 (ip), vehicle: saline
[10] = dose: 100.0 mg/kg/injection, schedule: Q01DX001 (ip), vehicle: saline with Tween-80
[11] = dose: 100.0 mg/kg/injection, schedule: Q04DX002 (ip), vehicle: Klucel (hydroxypropylcellulose) (HPC)
[12] = dose: 200.0 mg/kg/injection, schedule: Q04DX002 (ip), vehicle: Klucel (hydroxypropylcellulose) (HPC)

Measured: T/C

NC(c1ccccc1)c1c(O)ccc2ccccc12 (centres undefined)
inactive: [1] 96 % of control | dose: 100.0 mg/kg/injection, schedule: Q04DX003 (ip), vehicle: saline with Tween-80 101 % of control | [2] 98 % of control | dose: 200.0 mg/kg/injection, schedule: Q04DX003 (ip), vehicle: saline with Tween-80 93 % of control | [3] 91 % of control | dose: 400.0 mg/kg/injection, schedule: Q04DX003 (ip), vehicle: saline with Tween-80 98 % of control

Fc1ccccc1CSc1ncnc2nc[nH]c12
active: dose: 150.0 mg/kg/injection, schedule: Q01DX009 (ip), vehicle: saline 157 % of control
inactive: dose: 40.0 mg/kg/injection, schedule: Q01DX009 (ip), vehicle: saline 115 % of control | dose: 175.0 mg/kg/injection, schedule: Q01DX001 (ip), vehicle: saline 117 % of control and 118 % of control | dose: 265.0 mg/kg/injection, schedule: Q01DX001 (ip), vehicle: saline 112 % of control and 120 % of control | [4] 122 % of control | dose: 600.0 mg/kg/injection, schedule: Q01DX001 (ip), vehicle: saline 100 % of control

COc1cccc(CCC(=O)O)c1
inactive: [1] 107 % of control | dose: 100.0 mg/kg/injection, schedule: Q04DX003 (ip), vehicle: gum acacia 104 % of control | [2] 107 % of control | dose: 200.0 mg/kg/injection, schedule: Q04DX003 (ip), vehicle: gum acacia 102 % of control | [3] 98 % of control | dose: 400.0 mg/kg/injection, schedule: Q04DX003 (ip), vehicle: gum acacia 96 % of control

C[C@@H]1C[C@H]2[C@@H]3CCC4=CC(=O)C=C[C@]4(C)[C@@]3(F)[C@@H](O)C[C@]2(C)[C@@]1(O)C(=O)CO
inactive: dose: 3.12 mg/kg/injection, schedule: Q01DX009 (ip), vehicle: Klucel (hydroxypropylcellulose) (HPC) 102 % of control | dose: 6.25 mg/kg/injection, schedule: Q01DX009 (ip), vehicle: Klucel (hydroxypropylcellulose) (HPC) 95 % of control | dose: 10.0 mg/kg/injection, schedule: Q01DX Z (sc), vehicle: steriod suspending solution 112 % of control | dose: 12.5 mg/kg/injection, schedule: Q01DX009 (ip), vehicle: Klucel (hydroxypropylcellulose) (HPC) 98 % of control | dose: 12.5 mg/kg/injection, schedule: Q01DX009 (ip), vehicle: saline 111 % of control | dose: 25.0 mg/kg/injection, schedule: Q01DX009 (ip), vehicle: Klucel (hydroxypropylcellulose) (HPC) 96 % of control | dose: 25.0 mg/kg/injection, schedule: Q01DX009 (ip), vehicle: saline sonified 99 % of control | dose: 25.0 mg/kg/injection, schedule: Q01DX009 (ip), vehicle: saline 96 % of control | dose: 25.0 mg/kg/injection, schedule: Q01DX Z (sc), vehicle: steriod suspending solution 112 % of control | dose: 37.5 mg/kg/injection, schedule: Q04DX003 (ip), vehicle: saline with Tween-80 93 % of control | dose: 50.0 mg/kg/injection, schedule: Q01DX009 (ip), vehicle: Klucel (hydroxypropylcellulose) (HPC) 91 % of control | dose: 50.0 mg/kg/injection, schedule: Q01DX009 (ip), vehicle: saline sonified 99 % of control | dose: 50.0 mg/kg/injection, schedule: Q01DX009 (ip), vehicle: saline 107 % of control | dose: 50.0 mg/kg/injection, schedule: Q01DX Z (sc), vehicle: steriod suspending solution 110 % of control | dose: 75.0 mg/kg/injection, schedule: Q04DX003 (ip), vehicle: saline with Tween-80 95 % of control | [5] 91 % of control | dose: 100.0 mg/kg/injection, schedule: Q01DX009 (ip), vehicle: saline sonified 106 % of control | dose: 100.0 mg/kg/injection, schedule: Q04DX003 (ip), vehicle: Klucel (hydroxypropylcellulose) (HPC) 102 % of control

CN(C)C1c2ccccc2-c2cccc(C(=O)O)c21 (centres undefined)
inactive: [6] 108 % of control | [7] 103 % of control | [4] 103 % of control

CCCC1(c2ccccc2)CC(=O)NC1=O (centres undefined)
inactive: [6] 100 % of control | [8] 106 % of control and 107 % of control | dose: 100.0 mg/kg/injection, schedule: Q04DX002 (ip), vehicle: saline 100 % of control and 108 % of control | dose: 100.0 mg/kg/injection, schedule: Q04DX003 (ip), vehicle: saline 103 % of control | [7] 97 % of control | [9] 117 % of control and 89 % of control | dose: 200.0 mg/kg/injection, schedule: Q04DX002 (ip), vehicle: saline 105 % of control and 112 % of control | dose: 200.0 mg/kg/injection, schedule: Q04DX003 (ip), vehicle: saline 97 % of control | [4] 95 % of control | dose: 400.0 mg/kg/injection, schedule: Q01DX009 (ip), vehicle: saline 98 % of control and 86 % of control | dose: 400.0 mg/kg/injection, schedule: Q04DX002 (ip), vehicle: saline 105 % of control and 108 % of control | dose: 400.0 mg/kg/injection, schedule: Q04DX003 (ip), vehicle: saline 97 % of control

COc1ccc(/C=N/NC(=O)C[n+]2ccccc2)cc1
inactive: dose: 50.0 mg/kg/injection, schedule: Q01DX009 (ip), vehicle: saline with Tween-80 91 % of control | dose: 100.0 mg/kg/injection, schedule: Q01DX009 (ip), vehicle: saline with Tween-80 112 % of control | dose: 200.0 mg/kg/injection, schedule: Q01DX009 (ip), vehicle: saline with Tween-80 88 % of control

CC(=O)Nc1ccc(C(=O)O)c(OC(C)=O)c1
inactive: [10] 92 % of control | dose: 200.0 mg/kg/injection, schedule: Q01DX001 (ip), vehicle: saline with Tween-80 96 % of control | dose: 400.0 mg/kg/injection, schedule: Q01DX001 (ip), vehicle: saline with Tween-80 97 % of control

O=C(ON(Cc1ccccc1)Cc1ccccc1)c1ccccc1
inactive: dose: 100.0 mg/kg/injection, schedule: Q01DX001 (ip), vehicle: other 103 % of control | dose: 200.0 mg/kg/injection, schedule: Q01DX001 (ip), vehicle: other 100 % of control | dose: 400.0 mg/kg/injection, schedule: Q01DX001 (ip), vehicle: other 103 % of control

O=C1NC(c2cccs2)(c2cccs2)C(=O)N1Cl
inactive: dose: 6.25 mg/kg/injection, schedule: Q01DX009 (ip), vehicle: water 100 % of control | dose: 12.5 mg/kg/injection, schedule: Q01DX009 (ip), vehicle: water 97 % of control and 116 % of control | dose: 25.0 mg/kg/injection, schedule: Q01DX009 (ip), vehicle: water 98 % of control and 113 % of control | dose: 25.0 mg/kg/injection, schedule: Q04DX003 (ip), vehicle: water 92 % of control | dose: 50.0 mg/kg/injection, schedule: Q01DX009 (ip), vehicle: water 104 % of control and 87 % of control | dose: 50.0 mg/kg/injection, schedule: Q04DX003 (ip), vehicle: water 100 % of control | dose: 100.0 mg/kg/injection, schedule: Q01DX009 (ip), vehicle: water 87 % of control | dose: 100.0 mg/kg/injection, schedule: Q04DX003 (ip), vehicle: water 97 % of control and 112 % of control | dose: 150.0 mg/kg/injection, schedule: Q01DX009 (ip), vehicle: water 116 % of control | dose: 200.0 mg/kg/injection, schedule: Q01DX009 (ip), vehicle: water 93 % of control

Nc1nc(=S)c2n[nH]nc2[nH]1
inactive: [10] 94 % of control

C1=C(c2ccccc2)N(Cc2ccccc2)C(c2ccccc2)=CN1Cc1ccccc1
inactive: dose: 50.0 mg/kg/injection, schedule: Q04DX002 (ip), vehicle: saline with Tween-80 105 % of control | [11] 107 % of control | dose: 100.0 mg/kg/injection, schedule: Q04DX002 (ip), vehicle: saline with Tween-80 96 % of control | [12] 96 % of control | dose: 200.0 mg/kg/injection, schedule: Q04DX002 (ip), vehicle: saline with Tween-80 96 % of control | dose: 400.0 mg/kg/injection, schedule: Q04DX002 (ip), vehicle: Klucel (hydroxypropylcellulose) (HPC) 111 % of control

FC(F)(F)c1cccc(NC(=S)NCc2ccco2)c1
inactive: [5] 90 % of control | dose: 200.0 mg/kg/injection, schedule: Q01DX009 (ip), vehicle: Klucel (hydroxypropylcellulose) (HPC) 93 % of control | dose: 400.0 mg/kg/injection, schedule: Q01DX009 (ip), vehicle: Klucel (hydroxypropylcellulose) (HPC) 96 % of control

Cc1cnc(/N=C(\N)N2CCOCC2)nc1-c1ccccc1O
inactive: [11] 88 % of control | [12] 88 % of control

C=CC[As](C)(=O)O
inactive: [8] 109 % of control | [9] 94 % of control
